In patent publication EP0677039B1, “CYCLOBUTANE DERIVATIVES AS INHIBITORS OF […] SYNTHETASE AND PROTEIN […]” (Abbott Laboratories, priority 1993, dated 1995):

Target: T1, Rat liver microsomal squalene synthetase (Rattus norvegicus, UniProt Q02769)
T1 construct: Rat liver microsome, the source of enzyme; from tissue; host or cells: rat liver microsomes
T1 sequence (Q02769 1-416): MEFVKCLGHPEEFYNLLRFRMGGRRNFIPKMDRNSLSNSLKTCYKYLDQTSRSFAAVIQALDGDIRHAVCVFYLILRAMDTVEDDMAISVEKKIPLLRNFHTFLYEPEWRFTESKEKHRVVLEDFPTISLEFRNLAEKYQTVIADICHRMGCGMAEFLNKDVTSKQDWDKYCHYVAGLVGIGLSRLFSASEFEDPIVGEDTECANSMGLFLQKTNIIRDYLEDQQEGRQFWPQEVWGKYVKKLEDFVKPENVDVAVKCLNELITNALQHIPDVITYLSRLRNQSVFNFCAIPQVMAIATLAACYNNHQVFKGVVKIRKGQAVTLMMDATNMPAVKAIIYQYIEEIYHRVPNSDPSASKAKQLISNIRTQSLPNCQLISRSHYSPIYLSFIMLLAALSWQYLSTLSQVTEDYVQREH
Experiment: In vitro inhibition of squalene synthetase
Assay type: biochemical
Details: 10 µM test compound; rat liver microsomes, labelled farnesyl pyrophosphate, 10 minutes at 37 °C; compared to controls with no test compound
Outline: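 Percent inhibition at 10 µM (or 1 µM), against controls without compound, was scored from radioactive squalene formed from labelled farnesyl pyrophosphate by rat liver microsomal enzyme. Incubations were kept oxygen-free with nitrogen and stopped with ethanolic KOH; squalene was isolated by hexane extraction and an alumina column.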

Row | Compound | inhibition at 10 µM | % Inhibition at 10 µM
1 | CCCN(Cc1ccc(Oc2cccc3ccccc23)cc1)C(=O)C1C(C(=O)O)C(C(=O)O)C1C(=O)N(CCC)Cc1ccc(Oc2cccc3ccccc23)cc1 (stereo not drawn) [Example 91, (1α,2β,3β,4α)-1,2-Di[N-propyl-N-(4-naphth-1-yloxybenzyl)aminocarbonyl]cyclobutane-3,4-dicarboxylic acid] | 62% | –
2 | CCCN(C(=O)[C@H]1[C@@H](C(=O)O)[C@H](C(=O)O)[C@@H]1C(=O)N(CCC)c1ccc(Nc2ccccc2)cc1)c1ccc(Nc2ccccc2)cc1 [Example 66C, (1α,2β,3β,4α)-1,2-Di[N-propyl-N-(4-phenylaminophenyl)aminocarbonyl]cyclobutane-3,4-dicarboxylic acid] | 33% | –
3 | CCCN(Cc1ccc(Nc2ccccc2)cc1)C(=O)[C@H]1[C@@H](C(=O)O)[C@H](C(=O)O)[C@@H]1C(=O)N(CCC)Cc1ccc(Nc2ccccc2)cc1 [Example 67C, (1α,2β,3β,4α)-1,2-Di[N-propyl-N-(4-phenylaminobenzyl)aminocarbonyl]cyclobutane-3,4-dicarboxylic acid] | 87% | –
4 | CCCN(Cc1ccc(Oc2ccc3ccccc3c2)cc1)C(=O)C1C(C(=O)O)C(C(=O)O)C1C(=O)N(CCC)Cc1ccc(Oc2ccc3ccccc3c2)cc1 (stereo not drawn) [Example 88, (1α,2β,3β,4α)-1,2-Di[N-propyl-N-(4-naphth-2-yloxybenzyl)aminocarbonyl]cyclobutane-3,4-dicarboxylic acid] | 86% | –
5 | O=C(O)[C@H]1[C@H](C(=O)O)[C@H](C(=O)N(Cc2ccccc2)Cc2ccc(Oc3ccccc3)cc2)[C@H]1C(=O)N(Cc1ccccc1)Cc1ccc(Oc2ccccc2)cc1 [Example 15, (1α,2β,3β,4α)-1,2-Di[N-benzyl-N-(4-phenoxybenzyl)aminocarbonyl]cyclobutane-3,4-dicarboxylic acid] | 99% | –
6 | COCCN(Cc1ccc(Oc2ccccc2)cc1)C(=O)C1C(C(=O)O)C(C(=O)O)C1C(=O)N(CCOC)Cc1ccc(Oc2ccccc2)cc1 (stereo not drawn) [Example 40B, (1α,2β,3β,4α)-1,2-Di[N-(2-methoxyethyl)-N-(4-phenoxybenzyl)aminocarbonyl]cyclobutane-3,4-dicarboxylic acid] | 82% | –
7 | CCCN(Cc1cccc(Oc2ccccc2)c1)C(=O)C1C(C(=O)O)C(C(=O)O)C1C(=O)N(CCC)Cc1cccc(Oc2ccccc2)c1 (stereo not drawn) [Example 81B, (1α,2β,3β,4α)-1,2-Di[N-propyl-N-(3-phenoxybenzyl)aminocarbonyl]cyclobutane-3.4-dicarboxylic acid] | 73% | –
8 | COc1cccc(CCN(Cc2ccc(Oc3ccccc3)cc2)C(=O)C2C(C(=O)O)C(C(=O)O)C2C(=O)N(CCc2cccc(OC)c2)Cc2ccc(Oc3ccccc3)cc2)c1 (stereo not drawn) [Example 54B, (1α,2β,3β,4α)-1,2-Di[N-(4-phenoxybenzyl)-N-(3-methoxyphenethyl)aminocarbonyl]cyclobutane-3,4-dicarboxylic acid] | 74% | –

More lines, now with the values ahead:

Row | inhibition at 10 µM | % Inhibition at 10 µM | Compound
9 | – | 83% | (1α,2β,3β,4α)-1,2-Di[N-propyl-N-(4-phenoxybenzyl)aminocarbonyl]-3,4-di[(hydroxyimino)methyl]-cyclobutane [Example 79B]
10 | 57% | – | O=C(O)C1C(C(=O)O)C(C(=O)N(Cc2ccccc2)Cc2ccc(Cl)cc2)C1C(=O)N(Cc1ccccc1)Cc1ccc(Cl)cc1 (stereo not drawn) [Example 122B, (1α,2β,3β,4α)-1,2-Di[N-benzyl-N-(4-chlorobenzyl)aminocarbonyl]cyclobutane-3,4-dicarboxylic acid]

Same assay, conditions: values marked * in Table 1: 1 µM test compound; rat liver microsomes, labelled farnesyl pyrophosphate, 10 minutes at 37 °C

Row | Compound | % Inhibition at 1 µM | inhibition at 1 µM
11 | CCCN(Cc1ccc(Oc2ccccc2)cc1)C(=O)C1C(NC(=O)C(=O)O)C(C(=O)O)C1C(=O)N(CCC)Cc1ccc(Oc2ccccc2)cc1 (stereo not shown) [Example 74D] | – | 55%
12 | O=C(O)C1C(C(=O)O)C(C(=O)N(Cc2ccc(Oc3ccccc3)cc2)Cc2cccs2)C1C(=O)N(Cc1ccc(Oc2ccccc2)cc1)Cc1cccs1 (stereo not drawn) [Example 45, (1α,2β,3β,4α)-1,2-Di[N-(thien-2-ylmethyl)-N-(4-phenoxybenzyl)aminocarbonyl]cyclobutane-3,4-dicarboxylic acid] | – | 50%
13 | O=C(O)[C@H]1[C@H](C(=O)O)[C@H](C(=O)N(Cc2ccc(Oc3ccccc3)cc2)CC2CCCCC2)[C@H]1C(=O)N(Cc1ccc(Oc2ccccc2)cc1)CC1CCCCC1 [Example 31] | – | 37%
14 | CCOC(=O)CCN(Cc1ccc(Oc2ccccc2)cc1)C(=O)[C@H]1[C@@H](C(=O)O)[C@H](C(=O)O)[C@@H]1C(=O)N(CCC(=O)OCC)Cc1ccc(Oc2ccccc2)cc1 [Example 60, (1α,2β,3β,4α)-1,2-Di[N-(4-phenoxybenzyl)-N-(ethoxycarbonylethyl)aminocarbonyl]cyclobutane-3,4-dicarboxylic acid] | – | 65%
15 | CCCN(Cc1ccc(Oc2ccccc2)cc1)C(=O)C1C(C(=O)O)C(C(=O)N2CCCC2C(=O)O)C1C(=O)N(CCC)Cc1ccc(Oc2ccccc2)cc1 (stereo not drawn) [Example 107, (1α,2β,3β,4α)-1,2-Di[N-propyl-N-(4-phenoxybenzyl)aminocarbonyl]cyclobutane-3,4-dicarboxylic acid mono-d,l-Proline amide] | – | 75%
16 | CCCN(Cc1ccc(Oc2ccccc2)cc1)C(=O)C1C(C(=O)O)C(C(O)C(=O)O)C1C(=O)N(CCC)Cc1ccc(Oc2ccccc2)cc1 (stereo not drawn) [Example 78B, (1α,2β,3β,4α)-1,2-Di[N-propyl-N-(4-phenoxybenzyl)aminocarbonyl]-4-(1-carboxy-1-hydroxymethyl)cyclobutane-3-carboxylic acid] | – | 82%

Continued, values first:

Row | % Inhibition at 1 µM | inhibition at 1 µM | Compound
17 | 45* % | – | (1α,2β,3β,4α)-1,2-Di[N-propyl-N-(4-(3,4-methylenedioxyphenoxy)benzyl)aminocarbonyl]cyclobutane-3,4-carboxylic acid [Example 119C]
18 | – | 73% | CCCN(Cc1ccc(Oc2ccccc2)cc1)C(=O)C1C(C(=O)O)C(C(=O)NC(CO)C(=O)O)C1C(=O)N(CCC)Cc1ccc(Oc2ccccc2)cc1 (single isomer, unassigned) [Example 110A, (1α,2β,3β,4α)-1,2-Di[N-propyl-N-(4-phenoxybenzyl)aminocarbonyl]cyclobutane-3.4-dicarboxylic acid mono-Serine amide]
19 | 31* % | – | (1α,2β,3β,4α)-1,2-Di[N-propyl-N-(4-phenoxybenzyl)aminocarbonyl]cyclobutane-3,4-dicarboxylic acid mono-l-Norleucine amide [Example 113]
20 | – | 49% | CCCN(Cc1ccc(Oc2ccccc2)cc1)C(=O)C1C(C(=O)O)C(C(=O)NCCC(=O)O)C1C(=O)N(CCC)Cc1ccc(Oc2ccccc2)cc1 (stereo not drawn) [Example 111, (1α,2β,3β,4α)-1,2-Di[N-propyl-N-(4-phenoxybenzyl)aminocarbonyl]cyclobutane-3,4-dicarboxylic acid mono-β-Alanine amide]

Same assay, conditions: values marked * in Table 1: 1 µM test compound; rat liver microsomes, labelled farnesyl pyrophosphate, 10 minutes at 37 °C; 1 µM

Row | % Inhibition at 1 µM | Compound
21 | 48* % | (1α,2β,3β,4α)-1,2-Di[N-propyl-N-(4-phenoxybenzyl)aminocarbonyl]cyclobutane-3-phenoxycarbonyl-4-carboxylic acid [Example 105A]
22 | 69* % | CCCN(Cc1ccc(Oc2ccccc2)cc1)C(=O)C1C(C(=O)O)C(C(=O)NC(CO)C(=O)O)C1C(=O)N(CCC)Cc1ccc(Oc2ccccc2)cc1 (single isomer, unassigned) [Example 110B, (1α,2β,3β,4α)-1,2-Di[N-propyl-N-(4-phenoxybenzyl)aminocarbonyl]cyclobutane-3,4-dicarboxylic acid mono-Serine amide]
